Measured values as given in the NIST ThermoML archive (doi:10.1016/j.jct.2012.07.006).
Numbers after ± are expanded uncertainties.

Assays:
[1] = excess molar enthalpy (molar enthalpy of mixing); xn = mol fraction of the nth substance listed; conditions: 298.15 K, 101 kPa, Liquid, Calvet calorimetry
[2] = 298.15 K; 101.33 kPa; Liquid; Pycnometric method

`CNc1ccccc1` [N-methylaniline] + CCCCCCCCCC showed an excess molar enthalpy ([1]; x1 = 0.1015) of 0.881 ± 0.019 kJ/mol, an excess molar enthalpy ([1]; x1 = 0.201) of 1.42 ± 0.03 kJ/mol and an excess molar enthalpy ([1]; x1 = 0.2993) of 1.73 ± 0.037 kJ/mol. The excess molar enthalpy ([1]; x1 = 0.3848) was 1.88 ± 0.04 kJ/mol, the excess molar enthalpy ([1]; x1 = 0.487) was 1.92 ± 0.041 kJ/mol and the excess molar enthalpy ([1]; x1 = 0.5963) was 1.84 ± 0.039 kJ/mol. It also gave an excess molar enthalpy ([1]; x1 = 0.6951) of 1.65 ± 0.035 kJ/mol, an excess molar enthalpy ([1]; x1 = 0.7934) of 1.32 ± 0.028 kJ/mol and an excess molar enthalpy ([1]; x1 = 0.8899) of 0.857 ± 0.018 kJ/mol.
`CCCCCCCCCC` [decane] gave a mass density [2] of 726.47 ± 20 kg/m3.
Compound `CNc1ccccc1` [N-methylaniline] has a mass density [2] of 982.237 ± 20 kg/m3.
In the case of `Cc1ccccc1` [toluene], the mass density [2] is reported as 862.346 ± 24 kg/m3.
Work on `CCCCCCCCCCCCCCCC` [hexadecane] yielded a mass density [2] of 769.91 ± 20 kg/m3.
Compound `CNc1ccccc1` [N-methylaniline] + Cc1ccccc1 has an excess molar enthalpy ([1]; x1 = 0.0991) of 0.224 ± 0.005 kJ/mol, an excess molar enthalpy ([1]; x1 = 0.1956) of 0.368 ± 0.008 kJ/mol and an excess molar enthalpy ([1]; x1 = 0.2952) of 0.459 ± 0.01 kJ/mol. It also gave an excess molar enthalpy ([1]; x1 = 0.399) of 0.5 ± 0.011 kJ/mol, an excess molar enthalpy ([1]; x1 = 0.4973) of 0.497 ± 0.011 kJ/mol and an excess molar enthalpy ([1]; x1 = 0.5922) of 0.465 ± 0.01 kJ/mol. The excess molar enthalpy ([1]; x1 = 0.6882) was 0.387 ± 0.009 kJ/mol, the excess molar enthalpy ([1]; x1 = 0.7892) was 0.287 ± 0.006 kJ/mol and the excess molar enthalpy ([1]; x1 = 0.8851) was 0.166 ± 0.004 kJ/mol.
`CCCCCCCCCCCCCC` [tetradecane] gave a mass density [2] of 759.19 ± 20 kg/m3.
In the case of `CNc1ccccc1` [N-methylaniline] + C1CCCCC1, the excess molar enthalpy ([1]; x1 = 0.0978) is reported as 0.826 ± 0.018 kJ/mol, the excess molar enthalpy ([1]; x1 = 0.1987) is reported as 1.3 ± 0.028 kJ/mol and the excess molar enthalpy ([1]; x1 = 0.2934) is reported as 1.52 ± 0.033 kJ/mol. For the same compound, the excess molar enthalpy ([1]; x1 = 0.4002) was 1.61 ± 0.034 kJ/mol, the excess molar enthalpy ([1]; x1 = 0.4937) was 1.63 ± 0.035 kJ/mol and the excess molar enthalpy ([1]; x1 = 0.5934) was 1.54 ± 0.033 kJ/mol. It also gave an excess molar enthalpy ([1]; x1 = 0.6935) of 1.31 ± 0.028 kJ/mol, an excess molar enthalpy ([1]; x1 = 0.7953) of 0.972 ± 0.021 kJ/mol and an excess molar enthalpy ([1]; x1 = 0.8938) of 0.568 ± 0.012 kJ/mol.
Work on `CCCCCCCC` [octane] yielded a mass density [2] of 698.75 ± 20 kg/m3.
For `CNc1ccccc1` [N-methylaniline] + CCCCCCC, the excess molar enthalpy ([1]; x1 = 0.102) was 0.818 ± 0.018 kJ/mol, the excess molar enthalpy ([1]; x1 = 0.1982) was 1.29 ± 0.028 kJ/mol and the excess molar enthalpy ([1]; x1 = 0.2968) was 1.54 ± 0.033 kJ/mol. It also gave an excess molar enthalpy ([1]; x1 = 0.3935) of 1.65 ± 0.035 kJ/mol, an excess molar enthalpy ([1]; x1 = 0.4983) of 1.68 ± 0.036 kJ/mol and an excess molar enthalpy ([1]; x1 = 0.5982) of 1.6 ± 0.034 kJ/mol. The excess molar enthalpy ([1]; x1 = 0.6934) was 1.44 ± 0.031 kJ/mol, the excess molar enthalpy ([1]; x1 = 0.7941) was 1.13 ± 0.024 kJ/mol and the excess molar enthalpy ([1]; x1 = 0.8939) was 0.679 ± 0.015 kJ/mol.
Compound `C1CCCCC1` [cyclohexane] has a mass density [2] of 773.96 ± 20 kg/m3.
For `CNc1ccccc1` [N-methylaniline] + CCCCCCCC, the excess molar enthalpy ([1]; x1 = 0.1045) was 0.853 ± 0.018 kJ/mol, the excess molar enthalpy ([1]; x1 = 0.2002) was 1.35 ± 0.029 kJ/mol and the excess molar enthalpy ([1]; x1 = 0.303) was 1.62 ± 0.035 kJ/mol. It also gave an excess molar enthalpy ([1]; x1 = 0.4117) of 1.75 ± 0.037 kJ/mol, an excess molar enthalpy ([1]; x1 = 0.4956) of 1.77 ± 0.038 kJ/mol and an excess molar enthalpy ([1]; x1 = 0.5965) of 1.69 ± 0.036 kJ/mol. It also gave an excess molar enthalpy ([1]; x1 = 0.6933) of 1.51 ± 0.032 kJ/mol, an excess molar enthalpy ([1]; x1 = 0.791) of 1.19 ± 0.026 kJ/mol and an excess molar enthalpy ([1]; x1 = 0.889) of 0.769 ± 0.017 kJ/mol.
Work on `CCCCCCC` [heptane] yielded a mass density [2] of 679.71 ± 20 kg/m3.
